Results on 18 compounds are retold here after US20230117470A1, “SUBSTITUTED PYRAZOLE COMPOUNDS AS TOLL RECEPTOR INHIBITORS” (BRISTOL-MYERS SQUIBB COMPANY, priority 2019, published 2023).

Common to all, as to format: cell-based
The target of one test is T1, human TLR7 (Homo sapiens, UniProt Q9NYK1).
T1 construct: host or cells: HEK-Blue cells
T1 sequence (Q9NYK1 27-1049): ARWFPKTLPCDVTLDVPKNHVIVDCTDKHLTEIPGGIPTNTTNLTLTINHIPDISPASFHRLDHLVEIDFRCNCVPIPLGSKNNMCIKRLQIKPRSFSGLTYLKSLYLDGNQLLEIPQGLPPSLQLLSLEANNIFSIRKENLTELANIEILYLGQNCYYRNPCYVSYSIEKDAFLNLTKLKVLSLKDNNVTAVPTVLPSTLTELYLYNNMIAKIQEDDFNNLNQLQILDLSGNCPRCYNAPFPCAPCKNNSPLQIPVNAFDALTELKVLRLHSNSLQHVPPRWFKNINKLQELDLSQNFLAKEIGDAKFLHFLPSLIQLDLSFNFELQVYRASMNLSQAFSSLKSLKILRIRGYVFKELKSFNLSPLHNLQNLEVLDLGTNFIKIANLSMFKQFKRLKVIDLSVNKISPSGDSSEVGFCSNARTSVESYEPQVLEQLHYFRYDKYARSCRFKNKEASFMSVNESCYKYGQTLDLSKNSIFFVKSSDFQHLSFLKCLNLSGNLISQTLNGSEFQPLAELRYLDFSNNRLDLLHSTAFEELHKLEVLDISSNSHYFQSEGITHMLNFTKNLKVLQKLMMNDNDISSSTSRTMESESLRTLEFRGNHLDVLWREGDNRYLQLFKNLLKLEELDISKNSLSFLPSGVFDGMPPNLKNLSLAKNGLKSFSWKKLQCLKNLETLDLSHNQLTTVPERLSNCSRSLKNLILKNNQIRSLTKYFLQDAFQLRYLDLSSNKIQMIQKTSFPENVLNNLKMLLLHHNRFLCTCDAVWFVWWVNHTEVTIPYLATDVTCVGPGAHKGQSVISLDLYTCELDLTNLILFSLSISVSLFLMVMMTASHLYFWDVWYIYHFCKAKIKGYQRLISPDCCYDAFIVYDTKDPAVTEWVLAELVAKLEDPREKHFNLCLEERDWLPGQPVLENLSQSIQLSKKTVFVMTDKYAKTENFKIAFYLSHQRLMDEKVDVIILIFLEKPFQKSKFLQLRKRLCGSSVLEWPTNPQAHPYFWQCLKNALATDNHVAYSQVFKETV
Briefly: TLR7 inhibition reporter assay (HEK-Blue cells, SEAP reporter, gardiquimod stimulation). The settings on record: HEK-Blue cells overexpressing human TLR7, SEAP reporter, gardiquimod 7.5 μM. In outline:
(§1)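 30 min RT cpd pre-incubation (0.05 nM–50 μM final dose response) → agonist: gardiquimod 7.5 μM / R848 15.9 μM / ODN2006 5 nM for TLR7/8/9 resp. → 22 h, 37° C → SEAP via detection medium. % inhibition vs agonist+DMSO and reference inhibitor controls.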
In general terms: Reporter assays use an easily measured gene product as a stand-in for the process of interest.

For another test, the target named is T2, human TLR8 (Homo sapiens, UniProt Q9NR97).
T2 construct: host or cells: HEK-Blue cells
T2 sequence (Q9NR97 27-1041): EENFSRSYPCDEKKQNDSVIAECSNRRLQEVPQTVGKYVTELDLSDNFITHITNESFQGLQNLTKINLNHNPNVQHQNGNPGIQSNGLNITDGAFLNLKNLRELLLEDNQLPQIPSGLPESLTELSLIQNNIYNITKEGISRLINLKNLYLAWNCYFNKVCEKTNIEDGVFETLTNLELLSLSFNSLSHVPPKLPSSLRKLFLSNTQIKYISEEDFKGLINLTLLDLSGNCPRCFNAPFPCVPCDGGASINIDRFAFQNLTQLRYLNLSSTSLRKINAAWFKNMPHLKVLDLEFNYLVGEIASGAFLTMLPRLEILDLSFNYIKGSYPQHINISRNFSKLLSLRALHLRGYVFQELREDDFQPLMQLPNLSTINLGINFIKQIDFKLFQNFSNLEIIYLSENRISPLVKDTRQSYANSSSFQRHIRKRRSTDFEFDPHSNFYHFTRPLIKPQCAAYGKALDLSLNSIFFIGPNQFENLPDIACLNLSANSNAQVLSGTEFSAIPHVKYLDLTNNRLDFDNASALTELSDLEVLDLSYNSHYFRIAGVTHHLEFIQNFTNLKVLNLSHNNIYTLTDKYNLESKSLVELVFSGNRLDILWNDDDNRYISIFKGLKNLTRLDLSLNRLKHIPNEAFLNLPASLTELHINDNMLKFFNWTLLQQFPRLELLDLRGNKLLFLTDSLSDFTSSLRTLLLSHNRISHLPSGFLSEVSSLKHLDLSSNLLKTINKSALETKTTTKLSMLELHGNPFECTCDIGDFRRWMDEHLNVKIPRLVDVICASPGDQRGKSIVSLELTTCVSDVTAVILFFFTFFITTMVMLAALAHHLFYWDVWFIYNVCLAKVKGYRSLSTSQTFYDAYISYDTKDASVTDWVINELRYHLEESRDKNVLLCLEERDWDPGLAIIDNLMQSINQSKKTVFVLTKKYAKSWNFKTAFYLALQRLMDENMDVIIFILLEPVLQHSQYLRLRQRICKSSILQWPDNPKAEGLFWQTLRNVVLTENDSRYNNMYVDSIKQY
Briefly: TLR8 inhibition reporter assay (HEK-Blue cells, SEAP reporter, R848 stimulation). The settings on record: HEK-Blue cells overexpressing human TLR8, SEAP reporter, R848 15.9 μM. In outline:
as §1

In a further test the target is T3, human TLR9 (Homo sapiens, UniProt Q9NR96).
T3 construct: host or cells: HEK-Blue cells
T3 sequence (Q9NR96 26-1032): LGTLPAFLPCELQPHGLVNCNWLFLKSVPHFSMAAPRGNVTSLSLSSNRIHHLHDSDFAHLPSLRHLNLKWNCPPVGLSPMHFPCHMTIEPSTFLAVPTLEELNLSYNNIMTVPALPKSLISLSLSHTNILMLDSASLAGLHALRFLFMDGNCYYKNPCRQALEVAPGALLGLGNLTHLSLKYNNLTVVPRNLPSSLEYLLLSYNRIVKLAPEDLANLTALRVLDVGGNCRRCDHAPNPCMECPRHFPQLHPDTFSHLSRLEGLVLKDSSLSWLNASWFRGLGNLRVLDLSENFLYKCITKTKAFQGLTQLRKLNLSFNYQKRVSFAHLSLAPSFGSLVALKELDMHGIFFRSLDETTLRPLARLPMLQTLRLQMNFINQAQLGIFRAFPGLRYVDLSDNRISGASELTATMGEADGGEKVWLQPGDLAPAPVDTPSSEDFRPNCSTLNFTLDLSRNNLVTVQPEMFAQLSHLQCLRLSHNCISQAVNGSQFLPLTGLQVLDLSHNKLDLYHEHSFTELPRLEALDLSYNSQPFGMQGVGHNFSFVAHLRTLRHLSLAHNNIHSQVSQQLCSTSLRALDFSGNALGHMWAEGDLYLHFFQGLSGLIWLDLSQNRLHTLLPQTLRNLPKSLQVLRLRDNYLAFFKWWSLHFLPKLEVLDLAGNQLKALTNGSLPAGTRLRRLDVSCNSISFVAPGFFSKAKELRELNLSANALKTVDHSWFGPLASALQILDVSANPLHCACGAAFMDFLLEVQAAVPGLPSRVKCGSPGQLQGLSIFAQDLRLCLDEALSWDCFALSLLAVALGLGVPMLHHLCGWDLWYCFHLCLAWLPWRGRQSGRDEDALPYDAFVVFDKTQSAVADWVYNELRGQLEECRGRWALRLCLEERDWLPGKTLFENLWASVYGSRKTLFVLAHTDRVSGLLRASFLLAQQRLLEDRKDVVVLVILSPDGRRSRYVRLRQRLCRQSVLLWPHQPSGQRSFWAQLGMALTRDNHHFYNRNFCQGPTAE
Briefly: TLR9 inhibition reporter assay (HEK-Blue cells, SEAP reporter, ODN2006 stimulation). The settings on record: HEK-Blue cells overexpressing human TLR9, SEAP reporter, ODN2006 5 nM. In outline: as §1

Molecules are shown by their SMILES.

The term IC50 denotes the point on the concentration scale where inhibition reaches its midpoint. For `Cc1cc(-c2[nH]nc(C3CCC(N(C)C(=O)CN(C)C)CC3)c2C(C)C)cn2ncnc12` (single isomer, unassigned) [compound 297], the IC50 was determined as 2.25 nM at human TLR7, 0.27 nM at human TLR8 and 8910 nM on human TLR9.
In the case of `Cc1cc(-c2[nH]nc(C(=O)N[C@H]3CC[C@H](NCC4(C)COC4)CC3)c2C(C)C)cn2ncnc12` [Example 149], the figures for the half-inhibitory concentration (IC50) against human TLR7, at human TLR8 and against human TLR9 were 108 nM, 98.5 nM and > 50000 nM, respectively.
For `Cc1cc(-c2[nH]nc(C(=O)N[C@H]3CC[C@H](N)CC3)c2C(C)C)cn2ncnc12` [Example 46], in that order: 0.57 nM, 0.11 nM and 2500 nM.
For the compound `CNC(=O)CN1CCC(NC(=O)c2n[nH]c(-c3cc(OC)c4ncnn4c3)c2CC(F)(F)F)CC1` [Example 205, 5-(8-methoxy-[1,2,4]triazolo[1,5-a]pyridin-6-yl)-N-(1-(2-(methylamino)-2-oxoethyl)piperidin-4-yl)-4-(2,2,2-trifluoroethyl)-1H-pyrazole-3-carboxamide], the values for the IC50 against human TLR7, at human TLR8 and against human TLR9 were 6.66 nM, 2.33 nM and 21500 nM, respectively.
`COCC(C)N[C@H]1CC[C@H](NC(=O)c2n[nH]c(-c3cc(C)c4ncnn4c3)c2C(C)C)CC1` (stereo partly drawn) [Example 146]: the IC50 at human TLR7 was found to be 19.7 nM; against human TLR8, 0.92 nM; at human TLR9, 16300 nM.
Turning to `Cc1cc(-c2[nH]nc(C(=O)NCC3CN(CC(C)(C)C)CCO3)c2C(C)C)cn2ncnc12` (stereo not drawn) [Example 144], the IC50 is 7.26 nM against human TLR7, 3.56 nM against human TLR8 and 15200 nM against human TLR9.
For `Cc1cc(-c2[nH]nc(C(=O)N[C@H]3CCCNC3)c2C(C)C)cn2ncnc12` [Example 54], in that order: 1.1 nM, 3.74 nM and 6670 nM.
For the compound `Cc1cc(-c2[nH]nc(C(=O)NC3CCN(C4CCOCC4)CC3)c2CC(F)(F)F)cn2ncnc12` [Example 201], the IC50 was determined as 6.66 nM against human TLR7, 4.21 nM on human TLR8 and 9250 nM on human TLR9.
As to `Cc1cc(-c2c(C(C)C)c(C(=O)NC3CCN(CC(F)(F)F)CC3)nn2CC(F)(F)F)cn2ncnc12` [Example 175, 4-isopropyl-5-(8-methyl-[1,2,4]triazolo[1,5-a]pyridin-6-yl)-1-(2,2,2-trifluoroethyl)-N-(1-(2,2,2-trifluoroethyl)piperidin-4-yl)-1H-pyrazole-3-carboxamide], the IC50 turned out to be 3.76 nM on human TLR7, 6.23 nM against human TLR8 and 6250 nM at human TLR9.
On the same counts, the results for `Cc1cc(-c2[nH]nc(C(=O)N[C@H]3CC[C@@H](NCC4CCOC4)CC3)c2C(C)C)cn2ncnc12` (stereo partly drawn) [Example 87] are 1.73 nM, 11.8 nM and 7790 nM.
Regarding `Cc1cc(-c2[nH]nc(C(=O)NC3CCC(NC4(C)COC4)CC3)c2C(C)C)cn2ncnc12` (stereo not drawn) [Example 124], the IC50 came to 7.72 nM against human TLR7, 31.5 nM on human TLR8 and 28600 nM against human TLR9.
On the same counts, the results for `CNC(=O)CN1CCC(c2n[nH]c(-c3cc(C)c4ncnn4c3)c2C(C)C)CC1` [Example 211, 2-(4-(4-isopropyl-5-(8-methyl-[1,2,4]triazolo[1,5-a]pyridin-6-yl)-1H-pyrazol-3-yl)piperidin-1-yl)-N-methylacetamide] are 0.79 nM, 0.58 nM and 14300 nM.
On the same counts, the results for `CCCN1CCC(c2cnc(-c3n[nH]c(-c4cc(OC)c5ncnn5c4)c3C(C)C)cn2)CC1` [Example 383] are 17.5 nM, 3.51 nM and 47000 nM.
On the same counts, the results for `Cc1cc(-c2[nH]nc(C3CCC(N(C)C(=O)C4CN(C(C)C)C4)CC3)c2C(C)C)cn2ncnc12` (single isomer, unassigned) [Example 304] are 8.2 nM, 19.2 nM and 35600 nM.
For `COc1cc(-c2[nH]nc(-c3ccc(C4CN(C(C)C)C4)cc3)c2C(C)C)cn2ncnc12` [Example 331], the figures for the half-maximal inhibitory concentration (IC50) at human TLR7, on human TLR8 and at human TLR9 were 4.29 nM, 0.49 nM and 6310 nM, respectively.
On the same counts, the results for `Cc1cc(-c2[nH]nc(C3CCC(N4CCOCC4)CC3)c2C(C)C)cn2ncnc12` (single isomer, unassigned) [Example 290] are 8.56 nM, 1.09 nM and 22100 nM.
`Cc1cc(-c2[nH]nc(C3CCN(C(=O)CCNC(C)C)CC3)c2C(C)C)cn2ncnc12` [compound 210]: the half-maximal inhibitory concentration (IC50) against human TLR7 amounted to 1.8 nM; on human TLR8, 1.24 nM; against human TLR9, 23800 nM.
With `COc1cc(-c2[nH]nc(-c3ccc(C4CN(C(=O)CN(C)C)C4)cc3)c2C(C)C)cn2ncnc12` [compound 335], the IC50 at human TLR7 is 15.5 nM; at human TLR8 it was 11.1 nM; at human TLR9, > 50000 nM.
